Patent publication US20060188895A1, “Rapid prognostic assay for malignancies treated with epidermal growth factor receptor” (The Johns Hopkins University, priority 2004, published 2006)
pIC50: −log10 of the molar value. Where “and” joins values, the source holds several entries; their conditions need not be identical. Equal entries are not always repeated.

Legend:
Cal27 cells (c-fos mRNA) = assay: in vitro c-fos mRNA expression by quantitative RT-PCR; format: cell-based, human; conditions: for c-fos after longer exposure: 24-hour exposure
Description: (§1) Five cell lines were used: A431, Cal27, HN11, HuCCT1, and Hep2. HN11 was a gift from Dr David Sidranski's laboratory at Johns Hopkins University (Baltimore, Md.), and A431, Cal27, HuCCT1, and Hep2 were obtained from the American Tissue Culture Collection (Manassas, Va.). A431 is a squamous cell carcinoma, Cal27, HN11 and Hep2 are derived from head and neck squamous carcinomas, and HuCCT1 is a cholangiocarcinoma. The cell lines were grown in 6-well plates with DMEM supplemented with 10% fetal bovine serum (FBS) and penicillin/streptomycin. […] The cells were incubated for 1 hour, media was aspirated, and RNA collected by direct in-well lysis with 0.5 mL of RLT (Qiagen). […] IN VITRO GROWTH INHIBITION STUDIES
(§2) In vitro RNA extraction was performed on non-confluent cells after treatment. Wells were washed with PBS and RLT lysis buffer was added. Two passes from the FNA were put in lysis buffer (Mini Rneasy manufactured by Qiagen) loaded onto a column, washed and eluted into 50 μl TE pH8. Total RNA was extracted using the RNeasy™ Mini Kit (Qiagen, Valencia, Calif.). RNA was transcribed into cDNA by reverse transcription by priming with random hexamers (M-MLTV manufactured by Promega located in Madison, Wis.). The excess hexamers were removed using a column-based clean-up kit (Qiagen).
(§3) Quantitative PCR was performed on an MX3000p thermal cycler (Stratagene) using SYBR green dye method to track the progress of the reactions with ROX dye added as reference. Beta-Globin DNA specific primers were used to test DNA contamination for each sample type. Three housekeeping genes (HPRT, UBC and SDHA) were run in parallel with test genes. The amount of change in the target gene between the control and experimental conditions was found by comparing the threshold cycle (Ct) of the target gene to the geometric mean of the threshold cycles of the housekeeping genes. The geometric mean of the Cts of each of the housekeeping genes, and a change in threshold cycle (delta Ct), between conditions were calculated (dCtHouskeeping=(CtHPRT*CtUBC*CtSDHA)control−(CtHPRT*CtUBC*CtSDHA)exp). The change in threshold cycle for the target gene was calculated directly from Ct under each condition (dCttarget=(Cttarget)control−(Cttarget)exp). The efficiency of the […] raised to its dCt gave a ratio between the control and experimental conditions normalized to the housekeeping genes (Ratio=ETarget^dCtTarget/EHousekeeping^dctHousekeeping, where E=Primer efficiency, and Ct=Threshold cycle).

HN11 cells (c-fos mRNA) = assay: as above; format: cell-based, human; conditions: for c-fos after longer exposure: 24-hour exposure
Description: as §1, §2, §3

Hep2 cells (c-fos mRNA) = assay: as above; format: cell-based, human; conditions: for c-fos levels with time compared to baseline: 24-hour exposure
Description: as §1, §2, §3

[1] = system: HuCCT1 cells (c-fos mRNA); assay: as above; format: cell-based, human; conditions: for c-fos levels with time compared to baseline: 24-hour exposure
Description: as §1, §2, §3

A431 xenograft tumors = assay: in vivo growth inhibition and tumor c-fos, xenograft; set-up: species or system athymic nude mice
Description: (§4) Five groups of 14-16 six-week-old female athymic nude mice (Harlan, Ind., US) were used. 1.5-5×10^6 A431, CAL27, HN11, HuCCT1, and Hep2 cells were injected subcutaneously in each flank. […].
(§5) FNAs on mice were performed according to standard cytopathologic practice under inhaled general anesthesia (isofluorane) using 10 cc syringes and 25-gauge needles. During each FNA procedure the first pass was smeared onto glass slides and used for morphologic analysis, (DiffQuik™ and Papanicoloau), and the second and third passes for RNA extraction. Eighteen A431 tumors, fourteen CAL27 tumors, eighteen HN11 tumors, fourteen HuCCT1 tumors, and sixteen Hep2 tumors were tested. FNAs were performed at baseline and after 14 days of therapy for each of the tumors. Tumor biopsies on patients were performed following an ultrasonographic-guided, FNA-assisted methodology, with on-site cytopathologic assessment of tissue adequacy at baseline and after 28 days of therapy.
as §2, §3

HuCCT1 xenograft tumors = assay: as above; set-up: species or system athymic nude mice
Description: as §4, §5, §2, §3

[2] = system: c-fos in patient tumor samples; assay: c-fos in paired patient tumor samples; format: in vivo, patients
Description: as §5, with “therapy. […]” for “therapy.”
(§6) Quantitative PCR was performed on an MX3000p thermal cycler (Stratagene) using SYBR green dye method to track the progress of the reactions with ROX dye added as reference. […] The geometric mean of the Cts of each of the housekeeping genes, and a change in threshold cycle (delta Ct), between conditions were calculated (dCtHouskeeping=(CtHPRT*CtUBC*CtSDHA)control−(CtHPRT*CtUBC*CtSDHA)exp). The change in threshold cycle for the target gene was calculated directly from Ct under each condition (dCttarget=(Cttarget)control−(Cttarget)exp). […]

[3] = system: Ki67 proliferation index in patient tumor samples; assay: Ki67 proliferation index in paired patient tumor samples (immunohistochemistry); format: in vivo, patients; conditions: patient #3; 500 mg/day (FIG. 7 legend)
Description: FNAs on mice were performed according to standard cytopathologic practice under inhaled general anesthesia (isofluorane) using 10 cc syringes and 25-gauge needles. During each FNA procedure the first pass was smeared onto glass slides and used for morphologic analysis, (DiffQuik™ and Papanicoloau), and the second and third passes for RNA extraction. […] FNAs were performed at baseline and after 14 days of therapy for each of the tumors. Tumor biopsies on patients were performed following an ultrasonographic-guided, FNA-assisted methodology, with on-site cytopathologic assessment of tissue adequacy at baseline and after 28 days of therapy.
Core biopsies from patients were processed using standard procedures (formalin-fixed, and paraffin embedded). Five-micron sections were used for Ki67 staining that was performed following the manufacturer's instructions (M7187 manufactured by DAKO located in Carpinteria, Calif.).

[4] = system: metastatic or inoperable malignancy; assay: clinical response of patients treated with gefitinib; format: in vivo; conditions: five patients; 500 mg daily; 2, 4, 2, 2 and 5+ 1-month cycles
Excerpt: Patients were required to be 18 years of age or older, and have histologically documented metastatic or inoperable malignancy amenable to sequential biopsies, and for which there was no known curative or standard palliative regimen (or failure of such regimens have occurred). […] The scientific review board of our institution granted protocol approval and patients were required to provide written informed consent prior to enrollment into the study.

A431 cells (c-fos mRNA) = assay: in vitro c-fos mRNA expression by quantitative RT-PCR; format: cell-based, human
Description: Five cell lines were used: A431, Cal27, HN11, HuCCT1, and Hep2. […] The cell lines were grown in 6-well plates with DMEM supplemented with 10% fetal bovine serum (FBS) and penicillin/streptomycin. […] The cells were incubated for 1 hour, media was aspirated, and RNA collected by direct in-well lysis with 0.5 mL of RLT (Qiagen).
In vitro RNA extraction was performed on non-confluent cells after treatment. Wells were washed with PBS and RLT lysis buffer was added. […] Total RNA was extracted using the RNeasy™ Mini Kit (Qiagen, Valencia, Calif.). RNA was transcribed into cDNA by reverse transcription by priming with random hexamers (M-MLTV manufactured by Promega located in Madison, Wis.). The excess hexamers were removed using a column-based clean-up kit (Qiagen).
Quantitative PCR was performed on an MX3000p thermal cycler (Stratagene) using SYBR green dye method to track the progress of the reactions with ROX dye added as reference. Beta-Globin DNA specific primers were used to test DNA contamination for each sample type. […] The geometric mean of the Cts of each of the housekeeping genes, and a change in threshold cycle (delta Ct), between conditions were calculated (dCtHouskeeping=(CtHPRT*CtUBC*CtSDHA)control−(CtHPRT*CtUBC*CtSDHA)exp). The change in threshold cycle for the target gene was calculated directly from Ct under each condition (dCttarget=(Cttarget)control−(Cttarget)exp).

Cal27 cells = format: cell-based, human; conditions: CAL27 (EGF-inducible c-fos line); 0-10 μM, 72 hours, 10% FBS
HN11 cells = format: cell-based, human; conditions: HN11 (EGF-inducible c-fos line); 0-10 μM, 72 hours, 10% FBS
HuCCT1 cells = assay: cells; format: cell-based; conditions: Homo sapiens, HuCCT-1, MTT, 72 hours, 10% FBS, read-out: IC50 growth inhibition
Hep2 cells = assay: cells; format: cell-based; conditions: Homo sapiens, HEp-2, MTT, 72 hours, 10% FBS, read-out: IC50 growth inhibition
[5] = system: CAL27 xenograft tumors (c-fos mRNA); assay: ex vivo molecular assay (c-fos) on FNA material; format: cell-based, mice; conditions: FNA material from seven CAL27 xenograft tumors; with EGF, 30 to 60 minutes
Description: as §5
In vitro RNA extraction was performed on non-confluent cells after treatment. […]
as §6

CAL27 xenograft tumors = assay: in vivo growth inhibition and tumor c-fos, xenograft; set-up: species or system athymic nude mice
Description: as §4, §5, §2, §3

HN11 xenograft tumors = assay: as above; set-up: species or system athymic nude mice
Description: as §4, §5, §2, §3

Hep2 xenograft tumors = assay: as above; set-up: species or system athymic nude mice
Description: as §4, §5, §2, §3

[6] = 10 μM, 1-hour exposure, with EGF
[7] = 100 mgr/kg IP once a day for 14 days
[8] = day 14 treated vs control, P<0.05
[9] = 50 mgr/kg IP once a day for 14 days
[10] = EGF 100 ng/mL, normalized to media

COc1cc2ncnc(Nc3ccc(F)c(Cl)c3)c2cc1OCCCN1CCOCC1 [gefitinib]
effect on EGF-induced c-fos increment (Cal27 cells (c-fos mRNA); [6]): abrogated
c-fos after longer exposure (Cal27 cells (c-fos mRNA)): lasting c-fos downregulation
effect of drug alone on c-fos levels (Cal27 cells (c-fos mRNA); without EGF, 1 hour): decreased c-fos levels
effect on EGF-induced c-fos increment (HN11 cells (c-fos mRNA); [6]): abrogated
c-fos after longer exposure (HN11 cells (c-fos mRNA)): lasting c-fos downregulation
effect of drug alone on c-fos levels (HN11 cells (c-fos mRNA); without EGF, 1 hour): decreased c-fos levels
c-fos levels with time compared to baseline (Hep2 cells (c-fos mRNA)): minimally increased
effect of drug alone on c-fos levels (Hep2 cells (c-fos mRNA); without EGF, 1 hour): no effect
c-fos levels with time compared to baseline [1]: minimally increased
effect of drug alone on c-fos levels ([1]; without EGF, 1 hour): no effect
tumor growth (A431 xenograft tumors; [7]): growth arrest
effect on progressive increase in tumor c-fos expression (A431 xenograft tumors; [8]): significantly abrogate
tumor growth response (HuCCT1 xenograft tumors; [7]): no response
tumor c-fos levels (HuCCT1 xenograft tumors; 14 days of therapy): unchanged
change in c-fos ([2]; patient #3, 500 mg/day (FIG. 7 legend)): increase
tumor c-fos after 28 days, of baseline values ([2]; two patients with decrease, 500 mg daily): 56% and 37%
reduction of Ki67 [3]: 45%
objective response [4]: No objective, confirmed responses

C#Cc1cccc(Nc2ncnc3cc(OCCOC)c(OCCOC)cc23)c1 [erlotinib]
c-fos after longer exposure (A431 cells (c-fos mRNA); 24-hour exposure): lasting c-fos downregulation
c-fos after longer exposure (Cal27 cells (c-fos mRNA)): lasting c-fos downregulation
c-fos after longer exposure (HN11 cells (c-fos mRNA)): lasting c-fos downregulation
c-fos levels with time compared to baseline (Hep2 cells (c-fos mRNA)): minimally increased
c-fos levels with time compared to baseline [1]: minimally increased
in vitro sensitivity (growth inhibition, MTT) (Cal27 cells): high
in vitro sensitivity (growth inhibition, MTT) (HN11 cells): high
pIC50 (HuCCT1 cells): < 5.00
pIC50 (Hep2 cells): < 5.00
effect on EGF-induced c-fos upregulation [5]: abrogation of this response
tumor growth (CAL27 xenograft tumors; [9]): growth arrest
effect on progressive increase in tumor c-fos expression (CAL27 xenograft tumors; day 14 treated vs control, P=0.07): significantly abrogate
tumor growth (HN11 xenograft tumors; [9]): growth arrest
effect on progressive increase in tumor c-fos expression (HN11 xenograft tumors; [8]): significantly abrogate
tumor growth response (Hep2 xenograft tumors; [9]): no response
tumor c-fos levels (Hep2 xenograft tumors; 14 days of therapy): unchanged

EGF: human epidermal growth factor 100 ng/mL (EGF; Sigma), EGFR ligand used as stimulus
c-fos mRNA level after brief exposure to EGF (A431 cells (c-fos mRNA); [10]): 126 fold
c-fos mRNA level after brief exposure to EGF (Cal27 cells (c-fos mRNA); [10]): 151 fold
c-fos mRNA level after brief exposure to EGF (HN11 cells (c-fos mRNA); [10]): 86 fold
c-fos increase upon exposure to EGF (Hep2 cells (c-fos mRNA); [10]): 4.1 fold
c-fos increase upon exposure to EGF [1, 10]: 3.6 fold
